Assay results published in patent US6037333A, “Microbe-inhibiting compositions” (Trustees of Tufts College, priority 1998, dated 2000).
Entries after “also recorded” stand apart in the source; their conditions may differ.

Experiments:
[1] = target: mannose binding protein (MBP) of Acanthamoeba (Acanthamoeba castellanii, UniProt Q6J288); experiment: Solid-phase assay of 35S-labeled Acanthamoeba binding to Man-BSA coated wells; design: species or system Acanthamoeba strain MEEI 0184 (A. castellani); conditions: for Inhibition of Acanthamoeba binding to Man-BSA: at 100 mM; for Inhibition of amoebic binding to Man-BSA / affinity of amoebic lectin: no concentration stated
From the text: The Acanthamoeba strain MEEI 0184 (A. castellani based on morphological characteristics) was derived from an infected human cornea and used throughout this study. ATCC strain 30868 should have similar properties. The parasites were axenically cultured in PYG medium. A solid-phase assay characterized the sugar binding properties of the mannose binding protein (MBP) of Acanthamoeba (Z. Yang et al., Infect. Immun. 65:439-445, 1997). Briefly, wells of microtiter plates were coated with bovine serum albumin-α-D-mannopyranosyl phenylisothiocyanate (Man-BSA, 15-25 moles of α-D-mannopyranoside/mole albumin, 0.03 μg/ml, 50μl/well in 0.1 M sodium carbonate buffer, pH 9.6, 4° C. overnight). Nonspecific binding was blocked with 1% BSA in phosphate buffered saline (PBS, 1 hour, room temperature). After adding a 50-μl aliquot of ^35 S-labeled Acanthamoeba (5×10^6 cells/ml in PBS; 1 to 2 cpm/parasite, >95% trophozoites) to each well, the plates were incubated for 2 hours at room temperature. After rinsing the cells with PBS to remove unbound Acanthamoeba, 0.1 ml of 2% sodium dodecyl sulfate (SDS) was added to each well, and the radioactivity in aliquots of solubilized material was determined in a scintillation counter.

Acanthamoeba [2] = experiment: Acanthamoeba-induced cytopathic effect (CPE) assay, immortalized corneal epithelial cultures; format: cell-based; conditions: for Inhibition of amoeba-induced CPE: no concentration stated
Procedure: Corneal epithelial cells with extended life span were also produced.
(§1) To characterize the role of carbohydrate-mediated host-parasite interactions in the Acanthamoeba-induced cytotoxicity of host cells, in vitro cytopathic assays were performed using both primary and immortalized cultures of corneal epithelium as host cells. Immortalized cells were assayed as confluent cultures in 24-well plates, and primary cells were assayed as confluent cells in 35-mm dishes or 6-well plates.
(§2) The plates were incubated at 37° C. in a CO2 incubator and periodically examined under a phase-contrast microscope for the presence of cell-free plaques in the monolayer for up to 28-30 hours. Control wells contained host cells without the parasites. At the end of the incubation period, the cultures were stained with Giemsa (Diff-Quik, Dade Diagnostic Inc., Aguada, PR). Approximate cell density in each well was estimated by scanning the stained plates in a calibrated, computer-assisted Bio-Image Scanner (Millipore, Ann Arbor, Mich.). Cytopathic effect (CPE) was expressed as percentage of the optical density by the following formula: [formula]
The CPE assays were performed in the SFB media containing one or more saccharides to be tested.
After staining with Giemsa, percent cell loss in each well was calculated based on the optical density in each well.

Acanthamoeba [3] = experiment: Adhesion of amoebae to corneal epithelial cell monolayer; format: cell-based; conditions: saccharide present in media; listed as GlcNAc
[4] = test system: Acanthamoeba-conditioned medium (ACM); experiment: CPE assay with Acanthamoeba-conditioned medium (ACM); format: cell-based
Procedure: To determine whether the mechanism modulating the CPE produced by intact amoeba and amoeba-conditioned medium (ACM) are distinct, CPE and assays were also performed using ACM in the presence and the absence of saccharides. To produce ACM, exponentially growing parasites (>95% trophozoites) in PYG media (Proteose Peptone-yeast extract-glucose , J. T. Bornes et al., J. Parasitol. 56:904-906, 1970) were rinsed twice with SFB medium and incubated in serum-free SFB medium at concentrations between 2×10^5 to 1×10^6 cells/ml in a CO2 incubator for 24 hours. After removing the parasites by centrifugation, each supernatant was analyzed for its ability to induce CPE. Saccharides (α-Man and GIcNAc, 50 mM) were added either to the ACM after it was produced or to serum-free medium used to produce an ACM. The ACM produced in the presence of the saccharides was also analyzed after removal of the saccharides by centrifugation through Centricon 3 microconcentrators (Amicon Inc., Beverly, Mass.).
To determine the role of the parasitic secretory factors in the cytopathogenic mechanism, chromium release and CPE assays were performed using ACM. In this study, parasites were incubated in the SFB media for 24 hours, centrifuged to remove parasites and the conditioned medium was tested for its ability to produce cytolysis and CPE. The ACM produced remarkable CPE. […] Approximately 6 to 8 hours following the incubation of the monolayer with the ACM, the cell sheet at the edges of the monolayer began to lift and roll inwards and eventually the entire monolayer lifted en bloc from the dish. These observations were similar to those seen when the monolayers were incubated with trophozoites in the presence of α-Man. Unlike the CPE induced by intact amoeba, the CPE induced by the ACM was not inhibited by either α-Man or GlcNAc when the sugars were added to the ACM after it was produced. In the next set of experiments, ACM was produced in the presence of α-Man or GIcNAc and was tested for CPE-inducing activity. […] In addition, the filtrate and retentate obtained after filtering the ACM in Centricon 3 microconcentrators were tested for CPE-inducing activity. When the ACM was produced in the absence of either sugar, substantially all of the CPE-inducing activity was found in the retentate obtained after Centricon filtration.

Acanthamoeba [5] = experiment: Acanthamoeba-induced CPE assay, primary cultures of corneal epithelium; format: cell-based; conditions: primary cultures as target cells
Procedure: In vitro cytopathic assays were performed using cell cultures of corneal epithelium as target cells. Primary cell cultures of rabbit corneal epithelium were prepared according to published protocols (M. M. Jumblatt, Invest. Opthalmol. Visual Sci. 24:1139-43, 1983) using rabbit eyes from Pel-Freez Biologicals (N. Panjwani et al., Invest. Opthalmol. Visual Sci. 31:689-695, 1990) (Rogers, AK). Generally, seventy-five eyes were processed at a time. Primary cultures have limited life span and can only be passaged 2 to 3 times without significant alteration in cell morphology.
as §1
as §2, with “The parasites (>95% trophozoites) were rinsed three times in a serum-free Eagle's minimum essential medium supplemented with 0.4% bovine serum albumin (SFB) and aliquots of the parasite suspension (0.2×10^5 to 1×10^6 parasites/ml SFB medium, 300 μl/well for 24-well plates and 500 μl/well for 6-well plates or 35-mm dishes) were added to wells of confluent epithelial cultures which had been rinsed and preincubated in SFB medium for 2 hours. The” for “The”
Primary cultures were less susceptible to amoeba-induced CPE, requiring 1×10^6 parasites/ml to completely destroy the monolayer within 24 hours. This parasite concentration was five times higher than that required to produce the same effect when immortalized cultures were used as target host cells.

Acanthamoeba [6] = experiment: 51Cr release assay of amoeba-induced cytolysis of corneal epithelium; format: cell-based
Procedure: Chromium release experiments were performed to confirm the absence or occurrence of cytolysis. Visually, cell plaques or bare spots in a culture can indicate either cell loss by cytolysis, or separation of the cell from the culture surface, wherein detached cells, although initially viable, subsequently die. Cell lysis was quantified by measuring ^51 Cr release from prelabeled cells. After incubating confluent monolayer cultures of corneal epithelium in 24-well plates in cell culture medium containing Na^51 CrO4 (460 mCi/mg, 12 μCi/ml) for 18-20 hours, the cells were thoroughly rinsed and incubated with Acanthamoeba (1×10^6 parasites/ml SFB media). The four groups were (i) Acanthamoeba in media alone, (ii) Acanthamoeba in media containing α-Man, (iii) Acanthamoeba in media containing GlcNAc, and (iv) Acanthamoeba condition media. When approximately 50-70% cell loss occurred based on phase contrast microscopy, aliquots of cell-free conditioned medium from each well were analyzed. Supernatants from the four wells in each group were pooled before analysis. Percent specific release was calculated using E/T×100, where E is CPM released in test well minus CPM released in control (parasite-free) well and T is the total CPM (CPM cells+CPM supernatant in control wells). "CPM cells" was determined by incubating control wells with 0.5% Triton X-100. Conditioned media from each well was also analyzed for lactate dehydrogenase (LDH) release using an LDH assay kit (Sigma).

[7] = target: proteinases P1, P2, P3, P4; experiment: Zymography with proteinase inhibitors, components P1-P4; format: biochemical, Acanthamoeba; conditions: inhibitor 1 mM
Procedure: (§3) To characterize the mechanism by which the mannose-mediated host-parasite interactions influence the amoeba-induced cytolysis and/or cytopathic effect, conditioned media obtained by incubating amoebae with primary cultures of corneal epithelium in the presence and absence of α-Man for 6 to 8 hours were analyzed by zymography. Media conditioned by only Acanthamoeba or only epithelial cells were also analyzed. Zymography was performed using separating gels containing 10% acrylamide and 2 mg/ml gelatin, essentially as described by D. E. Kleiner et al. (Anal Biochem. 218:325-329, 1994). Samples were diluted in the electrophoresis sample buffer (U. K. Laemmli, Nature 227:680-685, 1970) without mercaptoethanol and were applied to the gels. After electrophoresis, proteinases separated on the gels were renatured by incubating the gels in 2.5% Triton X-100 in 50 mM Tris-HCl, pH 7.5 to remove SDS. After incubating the gels for 18 hours in a developing buffer (50 mM Tris-HCl, pH 7.5 containing 10 mM CaCl2), the gels were stained with Coomassie brilliant blue. Areas of digestion were visualized as non-staining regions. In some experiments, samples were pre-treated with phenylmethylsulfonyl fluoride (PMSF, 1 mM), an inhibitor of […] for one hour prior to electrophoresis, or 1,10-phenanthroline (1 mM), an inhibitor of metalloproteinases, was added to the developing buffer.

proteinases E1, E2 = experiment: Zymography with proteinase inhibitors, media conditioned by epithelial cells alone; format: biochemical, rabbit; conditions: inhibitor 1 mM
Procedure: as §3

Sequence of mannose binding protein (MBP) of Acanthamoeba (Q6J288 entry or part of it): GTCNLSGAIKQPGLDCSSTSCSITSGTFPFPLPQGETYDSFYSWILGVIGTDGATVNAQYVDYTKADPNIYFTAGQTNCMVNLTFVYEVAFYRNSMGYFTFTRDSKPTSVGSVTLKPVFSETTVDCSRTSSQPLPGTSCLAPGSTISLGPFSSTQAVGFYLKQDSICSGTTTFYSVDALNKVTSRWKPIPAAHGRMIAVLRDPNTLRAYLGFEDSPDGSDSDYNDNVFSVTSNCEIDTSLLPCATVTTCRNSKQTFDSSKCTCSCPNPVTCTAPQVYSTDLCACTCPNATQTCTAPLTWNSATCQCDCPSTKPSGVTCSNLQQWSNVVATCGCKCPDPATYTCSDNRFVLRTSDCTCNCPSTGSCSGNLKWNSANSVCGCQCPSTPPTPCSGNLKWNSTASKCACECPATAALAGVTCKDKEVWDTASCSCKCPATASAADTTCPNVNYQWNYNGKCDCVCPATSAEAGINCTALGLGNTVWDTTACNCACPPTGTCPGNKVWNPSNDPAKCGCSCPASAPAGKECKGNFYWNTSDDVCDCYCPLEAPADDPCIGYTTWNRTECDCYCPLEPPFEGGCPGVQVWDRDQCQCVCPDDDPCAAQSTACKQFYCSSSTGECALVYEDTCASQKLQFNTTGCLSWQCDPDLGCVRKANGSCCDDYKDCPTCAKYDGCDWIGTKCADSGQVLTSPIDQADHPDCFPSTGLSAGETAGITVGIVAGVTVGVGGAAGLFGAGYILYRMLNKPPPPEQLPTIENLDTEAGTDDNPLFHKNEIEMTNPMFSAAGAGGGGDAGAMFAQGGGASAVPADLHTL

SMILES: N[C@H]1C(O)O[C@H](CO)[C@@H](O)[C@@H]1O (stereo partly drawn) [D-glucosamine]
- Toxicity to the epithelium (corneal epithelium): Toxic
- Inhibition of Acanthamoeba binding to Man-BSA [1]: did not inhibit

SMILES: N[C@@H]1C(O)O[C@H](CO)[C@@H](O)[C@@H]1O (stereo partly drawn) [D-mannosamine]
- Toxicity to the epithelium (corneal epithelium): Toxic
- Inhibition of amoeba-induced CPE (Acanthamoeba [2]): did not inhibit
- Inhibition of Acanthamoeba binding to Man-BSA [1]: did not inhibit
- Inhibition of amoebic binding to Man-BSA / affinity of amoebic lectin [1]: did not inhibit

SMILES: CC(=O)N[C@H]1C(O)O[C@H](CO)[C@@H](O)[C@@H]1O (stereo partly drawn) [N-acetyl-D-glucosamine]
- Adhesion of amoebae to the cell monolayer in presence of saccharide (Acanthamoeba [3]): poor inhibitor; also recorded: adhered tightly
- inhibition at 310 µM (Acanthamoeba [2]; Acanthamoeba, in Oryctolagus cuniculus, at 0.31 mM, read-out: Inhibition of cytopathic effect (% inhib. at indicated conc.)): 60%
- Inhibition of amoeba-induced CPE (Acanthamoeba [2]; listed as GlcNAc): inhibits CPE; also recorded: potent inhibitor; also recorded: nearly identical
- Attachment of cell layer to culture dish (Acanthamoeba [2]; primary and immortalized cultures, entire assay period of 28 hours): remained firmly adhered
- Amoeba-induced cytolysis of corneal epithelial cells (microscopy, words) (Acanthamoeba [2]; saccharide present in media): little evidence of cytolysis
- CPE-inducing activity of ACM produced with saccharide, after removal of saccharide by Centricon filtration ([4]; saccharide 50 mM): did not have CPE-inducing activity
- CPE-inducing activity of ACM produced in SFB containing the saccharide ([4]; saccharide 50 mM in medium used to produce ACM): did not induce CPE
- Inhibition of ACM-induced CPE ([4]; sugar (50 mM) added to the ACM after it was produced): not inhibited
- Inhibition of amoebic binding to Man-BSA / affinity of amoebic lectin ([1]; listed as GlcNAc): weak inhibitor
- inhibition at 50000 µM ([1]; read-out: Inhibition of binding, % at indicated conc.): 50%
- Inhibition of amoeba-induced CPE (Acanthamoeba [5]): inhibited
- Percentage specific 51Cr release (Acanthamoeba [6]; Acanthamoeba 1×10^6 parasites/ml in media containing the saccharide, media alone about 100): ~80%
- Inhibition of amoeba-induced cytolysis (Acanthamoeba [6]; fifty millimolar, 51Cr release): 10-20%

SMILES: O=S(=O)(F)Cc1ccccc1 [PMSF, phenylmethylsulfonyl fluoride]
- Susceptibility of component P1 (230 kD) to inhibitor [7]: susceptible
- Susceptibility of component P2 (97 kD) to inhibitor [7]: susceptible
- Susceptibility of component P3 (80 kD) to inhibitor [7]: resistant
- Susceptibility of component P4 (55 kD) to inhibitor [7]: susceptible
- Susceptibility of component E1 (93 kD) to inhibitor (proteinases E1, E2): resistant
- Susceptibility of component E2 (63 kD) to inhibitor (proteinases E1, E2): resistant
